Activity calls are given as the source filed them. The calls are words filed in the database; no cut-off is given here.
Legend:
[1] = target: Serine-protein kinase ATM (Homo sapiens) (UniProt Q13315); assay: Inhibition of ATM in human U2OS cells assessed as reduction in etoposide-induced Chk-2 phosphorylation at Thr68 residue at 10 uM preincubated for 1 hr followed by etoposide challenge measured after 20 mins by Western blot analysis; format: cell-based
[2] = target: Serine/threonine-protein kinase ATR (Homo sapiens) (UniProt Q13535); assay: Inhibition of ATR in human U2OS cells assessed as reduction in etoposide-induced Chk-1 phosphorylation at Ser345 residue at 10 uM preincubated for 1 hr followed by etoposide challenge measured after 20 mins by Western blot analysis; format: cell-based
Sequence of Serine/threonine-protein kinase ATR (Homo sapiens) (Q13535 whole entry, looked up): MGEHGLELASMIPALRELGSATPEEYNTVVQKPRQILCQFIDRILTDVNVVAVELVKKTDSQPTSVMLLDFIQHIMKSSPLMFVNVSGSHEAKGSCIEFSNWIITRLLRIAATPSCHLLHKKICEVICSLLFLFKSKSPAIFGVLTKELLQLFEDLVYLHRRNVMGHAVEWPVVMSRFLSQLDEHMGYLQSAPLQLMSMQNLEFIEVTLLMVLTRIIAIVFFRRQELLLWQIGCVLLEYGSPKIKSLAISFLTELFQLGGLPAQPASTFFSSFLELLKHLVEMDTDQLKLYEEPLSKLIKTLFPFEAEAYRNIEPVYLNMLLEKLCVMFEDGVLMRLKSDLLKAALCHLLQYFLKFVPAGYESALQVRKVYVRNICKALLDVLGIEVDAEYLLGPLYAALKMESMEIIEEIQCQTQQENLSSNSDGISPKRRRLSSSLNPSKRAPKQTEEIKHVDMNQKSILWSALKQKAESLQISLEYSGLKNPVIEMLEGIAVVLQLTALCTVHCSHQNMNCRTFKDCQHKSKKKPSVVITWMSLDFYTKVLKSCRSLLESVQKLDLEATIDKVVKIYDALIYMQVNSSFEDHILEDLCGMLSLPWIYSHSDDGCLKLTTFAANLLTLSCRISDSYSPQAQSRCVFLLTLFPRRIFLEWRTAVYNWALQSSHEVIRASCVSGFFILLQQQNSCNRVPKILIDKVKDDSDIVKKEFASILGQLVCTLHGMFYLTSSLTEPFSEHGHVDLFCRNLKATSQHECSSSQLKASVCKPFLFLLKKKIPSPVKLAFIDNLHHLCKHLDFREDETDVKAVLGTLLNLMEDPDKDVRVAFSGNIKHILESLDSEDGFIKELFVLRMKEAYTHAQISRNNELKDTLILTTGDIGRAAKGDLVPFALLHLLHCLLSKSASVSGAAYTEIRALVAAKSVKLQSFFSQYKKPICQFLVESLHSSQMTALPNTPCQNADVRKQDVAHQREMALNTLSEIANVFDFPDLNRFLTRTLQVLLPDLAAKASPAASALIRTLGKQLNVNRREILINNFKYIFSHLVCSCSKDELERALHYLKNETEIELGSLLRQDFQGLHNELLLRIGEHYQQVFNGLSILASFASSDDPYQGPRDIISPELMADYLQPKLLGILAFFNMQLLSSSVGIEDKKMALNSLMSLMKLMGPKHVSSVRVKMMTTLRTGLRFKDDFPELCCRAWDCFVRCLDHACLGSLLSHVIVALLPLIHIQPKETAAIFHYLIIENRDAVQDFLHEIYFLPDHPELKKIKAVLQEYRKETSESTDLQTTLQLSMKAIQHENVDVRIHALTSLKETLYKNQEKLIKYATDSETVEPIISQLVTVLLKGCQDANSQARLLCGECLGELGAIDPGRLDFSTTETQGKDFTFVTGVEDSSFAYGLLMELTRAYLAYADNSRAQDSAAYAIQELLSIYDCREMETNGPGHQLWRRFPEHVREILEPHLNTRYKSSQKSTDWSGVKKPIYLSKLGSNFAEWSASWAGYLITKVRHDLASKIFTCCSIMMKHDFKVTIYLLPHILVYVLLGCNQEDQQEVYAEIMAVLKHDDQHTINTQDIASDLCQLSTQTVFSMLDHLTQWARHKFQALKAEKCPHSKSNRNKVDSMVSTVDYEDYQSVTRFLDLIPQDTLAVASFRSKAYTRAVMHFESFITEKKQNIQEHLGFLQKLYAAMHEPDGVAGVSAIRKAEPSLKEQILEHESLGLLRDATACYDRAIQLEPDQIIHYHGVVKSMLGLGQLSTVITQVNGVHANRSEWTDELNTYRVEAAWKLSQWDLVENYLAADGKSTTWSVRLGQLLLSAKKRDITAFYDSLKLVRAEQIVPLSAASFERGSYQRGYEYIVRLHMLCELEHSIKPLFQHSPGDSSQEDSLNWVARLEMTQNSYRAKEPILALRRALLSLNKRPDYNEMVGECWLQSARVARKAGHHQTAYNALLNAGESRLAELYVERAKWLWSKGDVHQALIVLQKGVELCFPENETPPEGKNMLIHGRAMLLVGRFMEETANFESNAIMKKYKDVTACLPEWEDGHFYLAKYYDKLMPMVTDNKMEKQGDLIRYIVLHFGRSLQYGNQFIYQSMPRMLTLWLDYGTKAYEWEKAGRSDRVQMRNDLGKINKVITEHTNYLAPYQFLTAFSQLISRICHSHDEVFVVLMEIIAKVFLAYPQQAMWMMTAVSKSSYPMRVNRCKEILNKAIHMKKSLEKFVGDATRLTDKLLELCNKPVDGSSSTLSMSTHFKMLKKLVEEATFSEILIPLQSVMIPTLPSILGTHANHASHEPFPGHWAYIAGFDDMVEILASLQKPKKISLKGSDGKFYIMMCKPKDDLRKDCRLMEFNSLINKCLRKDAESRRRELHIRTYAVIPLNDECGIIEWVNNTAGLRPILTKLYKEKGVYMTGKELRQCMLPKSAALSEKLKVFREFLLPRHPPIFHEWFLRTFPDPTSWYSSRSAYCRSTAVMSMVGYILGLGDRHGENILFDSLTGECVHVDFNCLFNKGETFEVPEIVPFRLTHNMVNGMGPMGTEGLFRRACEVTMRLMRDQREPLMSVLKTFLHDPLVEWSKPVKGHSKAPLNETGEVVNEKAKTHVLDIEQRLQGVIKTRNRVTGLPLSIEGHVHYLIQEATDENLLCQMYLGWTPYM

[3] = target: Serine/threonine-protein kinase ATR (Homo sapiens) (UniProt Q13535); assay: Inhibition of ATR in human U2OS cells assessed as reduction in hydroxyurea-induced Chk-1 phosphorylation at Ser345 residue at 10 uM preincubated for 1 hr followed by hydroxyurea challenge measured after 1 hr by Western blot analysis; format: cell-based
[4] = target: Serine/threonine-protein kinase ATR (Homo sapiens) (UniProt Q13535); assay: Inhibition of ATR in human Ramos cells assessed as reduction in […] at 10 uM after 48 hrs by Western blot analysis; format: cell-based
Ramos = assay: Induction of apoptosis in human Ramos cells assessed as increase PARP-1 cleavage at 10 uM after 48 hrs by Western blot analysis; format: functional, cell-based
MOLT-4 = assay: Growth inhibition of human MOLT4 cells assessed as cell growth at 10 uM incubated for 48 hrs by sulforhodamine B assay; format: functional; conditions: MOLT-4, 48 h, read-out: Activity
RPMI-8226 = assay: Growth inhibition of human RPMI8226 cells assessed as cell growth at 10 uM incubated for 48 hrs by sulforhodamine B assay; format: functional; conditions: RPMI-8226, 48 h, read-out: Activity
EKVX = assay: Growth inhibition of human EKVX cells assessed as cell growth at 10 uM incubated for 48 hrs by sulforhodamine B assay; format: functional; conditions: read-out: Activity
HOP-92 = assay: Growth inhibition of human HOP92 cells assessed as cell growth at 10 uM incubated for 48 hrs by sulforhodamine B assay; format: functional; conditions: HOP-92, 48 h, read-out: Activity
COLO 205 = assay: Growth inhibition of human COLO205 cells assessed as cell growth at 10 uM incubated for 48 hrs by sulforhodamine B assay; format: functional; conditions: COLO 205, 48 h, read-out: Activity
HCC 2998 = assay: Growth inhibition of human HCC2998 cells assessed as cell growth at 10 uM incubated for 48 hrs by sulforhodamine B assay; format: functional; conditions: HCC 2998, 48 h, read-out: Activity
HCT-116 = assay: Growth inhibition of human HCT116 cells assessed as cell growth at 10 uM incubated for 48 hrs by sulforhodamine B assay; format: functional; conditions: HCT-116, 48 h, read-out: Activity
HCT-15 = assay: Growth inhibition of human HCT15 cells assessed as cell growth at 10 uM incubated for 48 hrs by sulforhodamine B assay; format: functional; conditions: HCT-15, 48 h, read-out: Activity
HT-29 = assay: Growth inhibition of human HT-29 cells assessed as cell growth at 10 uM incubated for 48 hrs by sulforhodamine B assay; format: functional; conditions: HT-29, 48 h, read-out: Activity
KM12 = assay: Growth inhibition of human KM12 cells assessed as cell growth at 10 uM incubated for 48 hrs by sulforhodamine B assay; format: functional; conditions: KM12, 48 h, read-out: Activity
SNB-19 = assay: Growth inhibition of human SNB19 cells assessed as cell growth at 10 uM incubated for 48 hrs by sulforhodamine B assay; format: functional; conditions: SNB-19, 48 h, read-out: Activity
SNB-75 = assay: Growth inhibition of human SNB75 cells assessed as cell growth at 10 uM incubated for 48 hrs by sulforhodamine B assay; format: functional; conditions: SNB-75, 48 h, read-out: Activity
M14 = assay: Growth inhibition of human M14 cells assessed as cell growth at 10 uM incubated for 48 hrs by sulforhodamine B assay; format: functional; conditions: M14, 48 h, read-out: Activity
SK-MEL-2 = assay: Growth inhibition of human SK-MEL-2 cells assessed as cell growth at 10 uM incubated for 48 hrs by sulforhodamine B assay; format: functional; conditions: SK-MEL-2, 48 h, read-out: Activity
SK-MEL-28 = assay: Growth inhibition of human SK-MEL-28 cells assessed as cell growth at 10 uM incubated for 48 hrs by sulforhodamine B assay; format: functional; conditions: SK-MEL-28, 48 h, read-out: Activity
UACC-62 = assay: Growth inhibition of human UACC62 cells assessed as cell growth at 10 uM incubated for 48 hrs by sulforhodamine B assay; format: functional; conditions: UACC-62, 48 h, read-out: Activity
IGROV-1 = assay: Growth inhibition of human IGROV1 cells assessed as cell growth at 10 uM incubated for 48 hrs by sulforhodamine B assay; format: functional; conditions: IGROV-1, 48 h, read-out: Activity
OVCAR-3 = assay: Growth inhibition of human OVCAR3 cells assessed as cell growth at 10 uM incubated for 48 hrs by sulforhodamine B assay; format: functional; conditions: OVCAR-3, 48 h, read-out: Activity
OVCAR-5 = assay: Growth inhibition of human OVCAR5 cells assessed as cell growth at 10 uM incubated for 48 hrs by sulforhodamine B assay; format: functional; conditions: OVCAR-5, 48 h, read-out: Activity
OVCAR-8 = assay: Growth inhibition of human OVCAR8 cells assessed as cell growth at 10 uM incubated for 48 hrs by sulforhodamine B assay; format: functional; conditions: OVCAR-8, 48 h, read-out: Activity
SK-OV-3 = assay: Growth inhibition of human SKOV3 cells assessed as cell growth at 10 uM incubated for 48 hrs by sulforhodamine B assay; format: functional; conditions: SK-OV-3, 48 h, read-out: Activity
CAKI-1 = assay: Growth inhibition of human Caki1 cells assessed as cell growth at 10 uM incubated for 48 hrs by sulforhodamine B assay; format: functional; conditions: CAKI-1, 48 h, read-out: Activity
TK-10 = assay: Growth inhibition of human TK10 cells assessed as cell growth at 10 uM incubated for 48 hrs by sulforhodamine B assay; format: functional; conditions: TK-10, 48 h, read-out: Activity
Hs-578T = assay: Growth inhibition of human Hs578T cells assessed as cell growth at 10 uM incubated for 48 hrs by sulforhodamine B assay; format: functional; conditions: read-out: Activity
T47D = assay: Growth inhibition of human T47D cells assessed as cell growth at 10 uM incubated for 48 hrs by sulforhodamine B assay; format: functional; conditions: read-out: Activity
MDA-MB-468 = assay: Growth inhibition of human MDA-MB-468 cells assessed as cell growth at 10 uM incubated for 48 hrs by sulforhodamine B assay; format: functional; conditions: MDA-MB-468, 48 h, read-out: Activity
[5] = target: Serine/threonine-protein kinase ATR (Homo sapiens) (UniProt Q13535); assay: Inhibition of ATR in human U2OS cells assessed as reduction in hydroxyurea-induced Chk-1 phosphorylation at Ser345 residue by measuring ratio of GAPDH level to phosphorylated Chk-1 level at 10 uM preincubated for 1 hr followed by hydroxyurea challenge measured after 2 hrs by Western blot analysis; format: cell-based
[6] = target: Serine/threonine-protein kinase ATR (Homo sapiens) (UniProt Q13535); assay: Inhibition of ATR in human U2OS cells assessed as reduction in hydroxyurea-induced H2AX phosphorylation at Ser139 residue at 3 to 10 uM preincubated for 1 hr followed by hydroxyurea challenge measured after 2 hrs by Western blot analysis; format: cell-based

Compound | inhibition [1] | inhibition [2] | inhibition [3] | inhibition [4] | Activity (Ramos) | growth at 10 µM (MOLT-4) [%] | growth at 10 µM (RPMI-8226) [%] | growth at 10 µM (EKVX) [%] | growth at 10 µM (HOP-92) [%] | growth at 10 µM (COLO 205) [%] | growth at 10 µM (HCC 2998) [%] | growth at 10 µM (HCT-116) [%] | growth at 10 µM (HCT-15) [%] | growth at 10 µM (HT-29) [%] | growth at 10 µM (KM12) [%] | growth at 10 µM (SNB-19) [%] | growth at 10 µM (SNB-75) [%] | growth at 10 µM (M14) [%] | growth at 10 µM (SK-MEL-2) [%] | growth at 10 µM (SK-MEL-28) [%] | also measured
CS(=O)(=NC#N)c1ccc(-c2cnc(N)c(C(=O)Nc3ccccc3)n2)cc1 (stereo unspecified) | inactive | Active | Active | Active | Active | 64.7 | 105 | 88.1 | 106 | 88.3 | 105 | 86.8 | 63.2 | 79.9 | 78.2 | 105 | 56.9 | 77.7 | 94 | 111 | growth at 10 µM (UACC-62): 74.7%; growth at 10 µM (IGROV-1): 59.8%; growth at 10 µM (OVCAR-3): 89.4%; growth at 10 µM (OVCAR-5): 163%; growth at 10 µM (OVCAR-8): 96.8%; growth at 10 µM (SK-OV-3): 56.8%; growth at 10 µM (CAKI-1): 47.2%; growth at 10 µM (TK-10): 97.4%; growth at 10 µM (Hs-578T): 55%; growth at 10 µM (T47D): 99%; growth at 10 µM (MDA-MB-468): 96.7%; Ratio [5]: 43.1; inhibition [6]: Dose-dependent effect
C/S(=N\C#N)c1ccc(-c2cnc(N)c(C(=O)Nc3ccccc3)n2)cc1 (stereo unspecified) | inactive | Active | Active | Active | Active | 74.5 | 101 | 107 | 93.4 | 76.9 | 109 | 73.1 | 64.2 | 76.3 | 86.5 | 104 | 65.2 | 69.5 | 92.2 | 97.4 | growth at 10 µM (UACC-62): 82.2%; growth at 10 µM (IGROV-1): 56.9%; growth at 10 µM (OVCAR-3): 83.4%; growth at 10 µM (OVCAR-5): 120%; growth at 10 µM (OVCAR-8): 102%; growth at 10 µM (SK-OV-3): 68%; growth at 10 µM (CAKI-1): 53.2%; growth at 10 µM (TK-10): 93.6%; growth at 10 µM (Hs-578T): 74.6%; growth at 10 µM (T47D): 82.9%; growth at 10 µM (MDA-MB-468): 84.6%; Ratio [5]: 22.5; inhibition [6]: Dose-dependent effect

— ChEMBL document CHEMBL4020759, “Sulfoximines as ATR inhibitors: Analogs of VE-821” (2017)
